Literature values in US20030068374A1, “Sustained release preparations of physiologically active compound hardly soluble in water and production process and use of the same” (priority 2000, published 2003).

Settings: in water, 18° C.

## [O]=[Zn] [zinc oxide]
  solubility: 0.42 mg/100 ml
